Target: T1, KCNT1 (KNa1.1, Slack) (Homo sapiens, UniProt Q5JUK3)
T1 construct: expressed in transfected cells; host or cells: HEK-TREX (tetracycline-inducible HEK cell line)
T1 sequence (Q5JUK3 1-1230): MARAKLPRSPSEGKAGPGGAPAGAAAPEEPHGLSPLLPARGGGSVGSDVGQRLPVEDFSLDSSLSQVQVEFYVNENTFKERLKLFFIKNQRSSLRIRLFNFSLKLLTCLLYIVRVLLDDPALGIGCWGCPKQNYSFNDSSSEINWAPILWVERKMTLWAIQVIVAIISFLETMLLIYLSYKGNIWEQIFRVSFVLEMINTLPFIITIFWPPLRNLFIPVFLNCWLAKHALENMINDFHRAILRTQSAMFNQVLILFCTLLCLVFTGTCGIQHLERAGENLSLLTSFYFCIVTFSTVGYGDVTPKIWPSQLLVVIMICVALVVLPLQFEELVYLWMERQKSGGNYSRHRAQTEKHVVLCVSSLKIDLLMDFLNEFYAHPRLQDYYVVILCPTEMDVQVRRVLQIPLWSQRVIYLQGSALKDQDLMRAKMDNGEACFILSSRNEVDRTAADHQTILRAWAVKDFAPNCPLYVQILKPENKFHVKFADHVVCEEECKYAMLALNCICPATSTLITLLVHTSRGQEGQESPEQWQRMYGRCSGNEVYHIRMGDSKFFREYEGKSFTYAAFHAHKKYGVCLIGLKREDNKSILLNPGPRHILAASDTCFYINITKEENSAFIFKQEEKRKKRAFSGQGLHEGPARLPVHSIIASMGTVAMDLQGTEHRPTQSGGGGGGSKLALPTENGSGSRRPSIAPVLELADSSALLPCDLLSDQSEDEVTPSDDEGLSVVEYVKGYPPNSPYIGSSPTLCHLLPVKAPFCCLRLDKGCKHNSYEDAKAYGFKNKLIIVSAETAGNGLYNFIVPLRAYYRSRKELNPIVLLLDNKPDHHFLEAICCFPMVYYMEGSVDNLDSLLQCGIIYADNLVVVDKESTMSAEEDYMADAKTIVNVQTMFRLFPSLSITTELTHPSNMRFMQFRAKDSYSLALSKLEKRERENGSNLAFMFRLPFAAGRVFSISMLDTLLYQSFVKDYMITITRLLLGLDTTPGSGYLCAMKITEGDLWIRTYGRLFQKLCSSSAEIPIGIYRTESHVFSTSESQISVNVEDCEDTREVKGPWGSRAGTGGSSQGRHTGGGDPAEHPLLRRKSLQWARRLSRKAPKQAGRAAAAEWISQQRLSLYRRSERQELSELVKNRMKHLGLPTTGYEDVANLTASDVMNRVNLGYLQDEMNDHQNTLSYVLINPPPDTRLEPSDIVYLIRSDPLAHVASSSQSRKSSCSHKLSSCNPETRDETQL
Assay: KCNT1 patch clamp assay (SyncroPatch 384PE automated patch clamp)
Assay type: cell-based
Details: tetracycline inducible HEK-TREX cell line; perforated patch; step from −80 mV to 0 mV; room temperature; read-out: KCNT1-WT IC50
Method: KCNT1—Patch Clamp Assay Inhibition of KCNT1 (KNa1.1, Slack) was evaluated using a tetracycline inducible cell line (HEK-TREX). Currents were recorded using the SyncroPatch 384PE automated, patch clamp system. Pulse generation and data collection were performed with PatchController384 V1.3.0 and DataController384 V1.2.1 (Nanion Technologies). The access resistance and apparent membrane capacitance were estimated using built-in protocols. Current were recorded in perforated patch mode (10 μM escin) from a population of cells. […] The cells were allowed to recover in the cell hotel prior to experimentation. Currents were recorded at room temperature. […] The extracellular solution was used as the wash, reference and compound delivery solution. […] Escin is made at a 5 mM stock in water, aliquoted, and stored at −20° C. The compound plate was created at 2× concentrated in the extracellular solution. The compound was diluted to 1:2 when added to the recording well. The amount of DMSO in the extracellular solution was held constant at the level used for the highest tested concentration. A holding potential of −80 mV with a 100 ms step to 0 mV was used. […] The average mean current from 3 sweeps was calculated and the % inhibition of each compound was calculated. The % Inhibition as a function of the compound concentration was fit with a Hill equation to derive IC50, slope, min and max parameters.

| Compound | IC50 [nM] |
| --- | --- |
| CC[C@H](NC(=O)c1cc(C(F)(F)F)nn1C(F)F)c1nc(-c2ccnc(C)c2)no1 [Compound 221, (S)-1-(difluoromethyl)-N-(1-(3-(2-methylpyridin-4-yl)-1,2,4-oxadiazol-5-yl)propyl)-3-(trifluoromethyl)-1H-pyrazole-5-carboxamide] | ≤ 1000 |
| C[C@H](NC(=O)c1cc(C(F)(F)F)nn1C)c1nc(-c2ccnc(N3CCCCC3)c2)no1 (single isomer, unassigned) [Compound 209] | ≤ 1000 |
| CC[C@H](NC(=O)c1cc(C(F)(F)F)nn1C1CC1)c1nc(-c2cccc(F)c2)no1 [Compound 113] | ≤ 1000 |
| CC(NC(=O)c1cc(C(F)(F)F)nn1C)c1nc(-c2cccc(CC#N)c2)no1 (stereo not shown) [Compound 178, N-(1-(3-(3-(cyanomethyl)phenyl)-1,2,4-oxadiazol-5-yl)ethyl)-1-methyl-3-(trifluoromethyl)-1H-pyrazole-5-carboxamide] | 1000 to 20000 |
| CC(NC(=O)c1cc(C(F)(F)F)nn1C)c1nc(-c2cc(F)cc(F)c2)no1 (stereo not shown) [Compound 103] | ≤ 1000 |
| CO[C@H](C)[C@H](NC(=O)c1cc(C(F)(F)F)nn1C)c1nc(-c2cccc(F)c2)no1 [Compound 131] | 1000 to 20000 |
| CC(C)[C@H](NC(=O)c1cc(C2CC2)nn1C)c1nc(-c2cccc(F)c2)no1 [Compound 63] | ≤ 1000 |
| Cc1nn(C(C)C)cc1C(=O)N[C@@H](C)c1nc(-c2cccc(F)c2)no1 [Compound 153] | ≤ 1000 |
| Cn1nc(C(F)(F)F)cc1C(=O)NC1(c2nc(-c3cccc(F)c3)no2)CCOC1 (stereo not shown) [Compound 149] | ≤ 1000 |
| CC(=O)NC[C@H](NC(=O)c1cc(C(F)(F)F)nn1C)c1nc(-c2cccc(F)c2)no1 [Compound 134] | ≥ 20000 |
| Cc1nn(C(C)C)cc1C(=O)N[C@@H](C)c1nc(-c2ccc(F)c(Cl)c2)no1 [Compound 88] | 1000 to 20000 |
| Cc1cccc(-c2noc([C@H](C)NC(=O)c3cn(C(C)C)nc3C)n2)c1 [Compound 233] | ≤ 1000 |
| CC(C)C(NC(=O)c1cc(C2CC2)nn1C)c1nc(-c2cccc(F)c2)no1 (stereo not shown) [Compound 45] | ≤ 1000 |
| Cc1nn(C(C)C)cc1C(=O)N[C@@H](C)c1nc(-c2cccc(F)c2)no1 [Compound 95] | 1000 to 20000 |
| Cn1nc(C2CC2)cc1C(=O)NC(Cc1ccccc1)c1nc(-c2cccc(F)c2)no1 (stereo not shown) [Compound 49] | 1000 to 20000 |
| C[C@@H](NC(=O)c1cn(C)nc1C(F)F)c1nc(-c2cccc(F)c2)no1 [Compound 187, (R)-3-(difluoromethyl)-N-(1-(3-(3-fluorophenyl)-1,2,4-oxadiazol-5-yl)ethyl)-1-methyl-1H-pyrazole-4-carboxamide] | ≥ 20000 |
| CC[C@H](NC(=O)c1cc(-c2ccccc2)nn1C)c1nc(-c2ccnc(C)c2)no1 [Compound 226, (S)-1-methyl-N-(1-(3-(2-methylpyridin-4-yl)-1,2,4-oxadiazol-5-yl)propyl)-3-phenyl-1H-pyrazole-5-carboxamide] | ≤ 1000 |
| Cn1nc(C(F)(F)F)cc1C(=O)N[C@H](CC(=O)NCCO)c1nc(-c2cccc(F)c2)no1 [Compound 122] | ≥ 20000 |
| CC(NC(=O)c1cc(C(F)(F)F)nn1C)c1nc(-c2cccc(S(N)(=O)=O)c2)no1 (stereo not shown) [Compound 180, 1-methyl-N-(1-(3-(3-sulfamoylphenyl)-1,2,4-oxadiazol-5-yl)ethyl)-3-(trifluoromethyl)-1H-pyrazole-5-carboxamide] | ≥ 20000 |
| C[C@H](NC(=O)c1cc(C(F)F)nn1C1CC1)c1nc(-c2cccc(F)c2)no1 [Compound 132] | ≤ 1000 |
| CCC(NC(=O)c1cc(C2CC2)nn1C)c1nc(-c2cccc(F)c2)no1 (stereo not shown) [Compound 48] | ≤ 1000 |
| C[C@H](NC(=O)c1cc(C(F)F)nn1C)c1nc(-c2ccnc(C3CC3)c2)no1 [Compound 229, (S)—N-(1-(3-(2-cyclopropylpyridin-4-yl)-1,2,4-oxadiazol-5-yl)ethyl)-3-(difluoromethyl)-1-methyl-1H-pyrazole-5-carboxamide] | ≤ 1000 |

The next lines start with the values.

| IC50 [nM] | Compound |
| --- | --- |
| 1000 to 20000 | C[C@@H](NC(=O)OC(C)(C)C)c1nc(-c2ccnc(C(F)(F)F)c2)no1 [Compound 296, tert-butyl (R)-(1-(3-(2-(trifluoromethyl)pyridin-4-yl)-1,2,4-oxadiazol-5-yl)ethyl)carbamate] |
| 1000 to 20000 | C[C@H](NC(=O)c1cc(C(F)(F)F)nn1CC(=O)N(C)C)c1nc(-c2ccnc(C(F)(F)F)c2)no1 [Compound 251, (S)-1-(2-(dimethylamino)-2-oxoethyl)-3-(trifluoromethyl)-N-(1-(3-(2-(trifluoromethyl)pyridin-4-yl)-1,2,4-oxadiazol-5-yl)ethyl)-1H-pyrazole-5-carboxamide] |
| 1000 to 20000 | C[C@H](NC(=O)OC(C)(C)C)c1nc(-c2ccnc(C3(C)CC3)c2)no1 [Compound 272, tert-butyl (S)-(1-(3-(2-(1-methylcyclopropyl)pyridin-4-yl)-1,2,4-oxadiazol-5-yl)ethyl)carbamate] |
| ≤ 1000 | CCOC(=O)N[C@@H](C)c1nc(-c2ccnc(C3CC3)c2)no1 [Compound 274] |
| 1000 to 20000 | CC(C)OCc1cc(-c2noc([C@H](C)NC(=O)c3cc(C(F)(F)F)nn3C)n2)ccn1 [Compound 259, N-[(1S)-1-[3-[2-(isopropoxymethyl)-4-pyridyl]-1,2,4-oxadiazol-5-yl]ethyl]-2-methyl-5-(trifluoromethyl)pyrazole-3-carboxamide] |
| ≤ 1000 | C[C@H](NC(=O)c1ccnn1Cc1ccccc1)c1nc(-c2ccnc(C3CC3)c2)no1 [Compound 280, (S)-1-benzyl-N-(1-(3-(2-cyclopropylpyridin-4-yl)-1,2,4-oxadiazol-5-yl)ethyl)-1H-pyrazole-5-carboxamide] |
| ≤ 1000 | Cn1nc(C(F)(F)F)cc1C(=O)NCc1nc(-c2ccnc(C(F)(F)F)c2)no1 [Compound 300, 2-methyl-5-(trifluoromethyl)-N-[[3-[2-(trifluoromethyl)-4-pyridyl]-1,2,4-oxadiazol-5-yl]methyl]pyrazole-3-carboxamide] |
| 1000 to 20000 | C[C@H](NC(=O)OC(C)(C)C)c1nc(-c2ccnc(C(F)F)c2)no1 [Compound 291, tert-butyl (S)-(1-(3-(2-(difluoromethyl)pyridin-4-yl)-1,2,4-oxadiazol-5-yl)ethyl)carbamate] |
| ≤ 1000 | C[C@H](NC(=O)OCc1ccccc1)c1nc(-c2ccnc(C3CC3)c2)no1 [Compound 273] |
| ≤ 1000 | C[C@H](NC(=O)c1cc(C(F)(F)F)nn1CCN1CCCC1)c1nc(-c2ccnc(C(F)(F)F)c2)no1 [Compound 257, (S)-1-(2-(pyrrolidin-1-yl)ethyl)-3-(trifluoromethyl)-N-(1-(3-(2-(trifluoromethyl)pyridin-4-yl)-1,2,4-oxadiazol-5-yl)ethyl)-1H-pyrazole-5-carboxamide] |
| ≤ 1000 | CN(Cc1nc(-c2ccnc(C3CC3)c2)no1)C(=O)c1cc(C(F)(F)F)nn1C [Compound 302, N-[[3-(2-cyclopropyl-4-pyridyl)-1,2,4-oxadiazol-5-yl]methyl]-N,2-dimethyl-5-(trifluoromethyl)pyrazole-3-carboxamide] |
| ≤ 1000 | C[C@H](NC(=O)c1cc(C(F)(F)F)nn1CC(=O)N1CCCC1)c1nc(-c2ccnc(C(F)(F)F)c2)no1 [Compound 249, (S)-1-(2-oxo-2-(pyrrolidin-1-yl)ethyl)-3-(trifluoromethyl)-N-(1-(3-(2-(trifluoromethyl)pyridin-4-yl)-1,2,4-oxadiazol-5-yl)ethyl)-1H-pyrazole-5-carboxamide] |
